Assays:
[1] = Dissolution rate of HCTZ from tablet matrix; format: physicochemical; details: from a dissolving matrix as compared with dissolution from a disintegrating tablet
[2] = physiological pH range of the gastrointestinal tract, pH 1 to 7; free acid form; cited from earlier work

Structure (SMILES)	dissolution rate of HCTZ [1]	solubility in aqueous systems [2]
NS(=O)(=O)c1cc2c(cc1Cl)NCNS2(=O)=O [HCTZ, 6-chloro-3,4-dihydro-2H-1,2,4-benzothiadiazine-7-sulfonamide-1,1-dioxide]	reduced dissolution rate	
CCCc1nc2c(C)cc(-c3nc4ccccc4n3C)cc2n1Cc1ccc(-c2ccccc2C(=O)O)cc1 [Telmisartan, 4′-[2-n-propyl-4-methyl-6-(1-methylbenzimidazol-2-yl)-benzimidazol-1-ylmethyl]-biphenyl-2-carboxylic acid]		very poor solubility

From patent publication US20050186274A1, “Multilayer tablet” (Boehringer Ingelheim International GmbH, priority 2004, published 2005)
